Source: patent US20050065187A1, “Novel antimicrobial aryloxazolidinone compounds” (priority 2003, published 2005)
Values after ≈ are worked out from the molar mass of the structure shown. Where two headings read alike, the source gives them in different places.

Key:
Assay in all cases: Antibacterial assay (Test A), microtitration MIC
MC 30603 = type: cell-based, M. catarrhalis; conditions: Moraxella catarrhalis, read-out: MC 30603 MIC
Protocol: (§1) Test A—Antibacterial Assays
(§2) The compounds of the present invention were tested against an assortment of Gram-negative and Gram-positive organisms using standard microtitration techniques (Cohen et. al., Antimicrob., 1985;28:766; Heifetz, et. al., Antimicrob., 1974;6:124).

SAUR 9213 = type: cell-based, S. aureus; conditions: Staphylococcus aureus, read-out: SAUR 9213 MIC
Protocol: as §1, §2

SPNE 9912 = type: cell-based, S. pneumoniae; conditions: Streptococcus pneumoniae, read-out: SPNE 9912 MIC
Protocol: as §1, §2

HINF 30063 = type: cell-based, H. influenza; conditions: Minimum Inhibitory Concentration, strain HINF 30063
Protocol: as §1, §2

[1] = Minimum Inhibitory Concentration, strain MC 30603
[2] = Minimum Inhibitory Concentration, strain SAUR 9213
[3] = Minimum Inhibitory Concentration, strain SPNE 9912

Row | SMILES | MIC (MC 30603; [1]) | MIC (SAUR 9213; [2]) | MIC (SPNE 9912; [3]) | MIC (HINF 30063) | MIC (MC 30603) | MIC (SAUR 9213) | MIC (SPNE 9912)
1 | CC(=O)NC[C@H]1CN(c2ccc(N3CCC(=O)[C@@H](O)C3)c(F)c2)C(=O)O1 [Example 2, N-{3-[3-Fluoro-4-(3-hydroxy-4-oxo-piperidin-1-yl)-phenyl]-2-oxo-oxazolidin-5-ylmethyl}-acetamide] | 8 µg/mL (≈ 21.9 µM) | 4 µg/mL (≈ 10.9 µM) | 1 µg/mL (≈ 2.74 µM) | 16 µg/mL (≈ 43.8 µM) |  |  | 
2 | CON=C1CCC(c2ccc(N3C[C@H](CNC(C)=O)OC3=O)cc2F)CC1 (stereo partly shown) [Example 22, N-{3-[3-Fluoro-4-(4-methoxyimino-cyclohexyl)-phenyl]-2-oxo-oxazolidin-5-ylmethyl}-acetamide] | 1 µg/mL (≈ 2.65 µM) | 2 µg/mL (≈ 5.3 µM) | 1 µg/mL (≈ 2.65 µM) | 32 µg/mL (≈ 84.8 µM) |  |  | 
3 | CC(=O)NC[C@H]1CN(c2ccc(N3CC/C(=N/O)[C@@H](O)C3)c(F)c2)C(=O)O1 (stereo in doubt) [Example 3, N-{3-[3-Fluoro-4-(3-hydroxy-4-hydroxyimino-piperidin-1-yl)-phenyl]-2-oxo-oxazolidin-5-ylmethyl}-acetamide] | 16 µg/mL (≈ 42.1 µM) | 8 µg/mL (≈ 21 µM) | 2 µg/mL (≈ 5.26 µM) | 16 µg/mL (≈ 42.1 µM) |  |  | 
4 | CC(=O)NC[C@H]1CN(c2ccc(C3CCC(O)C(F)C3)c(F)c2)C(=O)O1 (single isomer, unassigned) [Example 26, N-{3-[3-Fluoro-4-(3-fluoro-4-hydroxy-cyclohexyl)-phenyl]-2-oxo-oxazolidin-5-ylmethyl}-acetamide] | 8 µg/mL (≈ 21.7 µM) | 2 µg/mL (≈ 5.43 µM) | 0.5 µg/mL (≈ 1.36 µM) | 16 µg/mL (≈ 43.4 µM) |  |  | 
5 | O=C1CCN(c2ccc(N3C[C@H](Cn4ccnn4)OC3=O)cc2F)C[C@@H]1O [Example 6, 1-[2-Fluoro-4-(2-oxo-5-[1,2,3]triazol-1-ylmethyl-oxazolidin-3-yl)-phenyl]-3-hydroxy-piperidin-4-one] | 8 µg/mL (≈ 21.3 µM) | 4 µg/mL (≈ 10.7 µM) | 1 µg/mL (≈ 2.66 µM) | 64 µg/mL (≈ 171 µM) |  |  | 
6 | CC(=O)NC[C@H]1CN(c2ccc(C3CC[C@@H](O)[C@@H](O)C3)cc2)C(=O)O1 (single isomer, unassigned) [Example 12, N-{3-[4-(3,4-Dihydroxy-cyclohexyl)-phenyl]-2-oxo-oxazolidin-5-ylmethyl}-acetamide] | 16 µg/mL (≈ 45.9 µM) | 16 µg/mL (≈ 45.9 µM) | 4 µg/mL (≈ 11.5 µM) | 16 µg/mL (≈ 45.9 µM) |  |  | 
7 | O=C1O[C@@H](CNC(=S)C(F)F)CN1c1ccc(C2CCC(O)CC2)c(F)c1 (stereo partly shown) [Example 19, 2,2-Difluoro-N-{3-[3-fluoro-4-(4-hydroxy-cyclohexyl)-phenyl]-2-oxo-oxazolidin-5-ylmethyl}-thioacetamide] | 2 µg/mL (≈ 4.97 µM) | 2 µg/mL (≈ 4.97 µM) | 0.5 µg/mL (≈ 1.24 µM) | 8 µg/mL (≈ 19.9 µM) |  |  | 
8 | NC(=O)[C@H]1CN(c2ccc(C3CCC(O)CC3)c(F)c2)C(=O)O1 (stereo in doubt) [Example 23, 3-[3-Fluoro-4-(4-hydroxy-cyclohexyl)-phenyl]-2-oxo-oxazolidine-5-carboxylic acid amide] | 16 µg/mL (≈ 49.6 µM) | 2 µg/mL (≈ 6.2 µM) | 1 µg/mL (≈ 3.1 µM) | 64 µg/mL (≈ 199 µM) |  |  | 
9 | CC(=O)NC[C@H]1CN(c2ccc(N3CC[C@@H](O)[C@@H](O)C3)c(F)c2)C(=O)O1 (stereo in doubt) [Example 1, N-{3-[4-(3,4-Dihydroxy-piperidin-1-yl)-3-fluoro-phenyl]-2-oxo-oxazolidin-5-ylmethyl}-acetamide] |  |  |  | 32 µg/mL (≈ 87.1 µM) | 8 µg/mL (≈ 21.8 µM) | 8 µg/mL (≈ 21.8 µM) | 2 µg/mL (≈ 5.44 µM)
10 | CC(=O)NC[C@H]1CN(c2ccc([C@@H]3CCC(=O)[C@@H](O)C3)c(F)c2)C(=O)O1 (stereo in doubt) [Example 25, N-{3-[3-Fluoro-4-(3-hydroxy-4-oxo-cyclohexyl)-phenyl]-2-oxo-oxazolidin-5-ylmethyl}-acetamide] |  |  |  | 16 µg/mL (≈ 43.9 µM) | 8 µg/mL (≈ 22 µM) | 2 µg/mL (≈ 5.49 µM) | 2 µg/mL (≈ 5.49 µM)
11 | O=C(NC[C@H]1CN(c2ccc(C3CCC(O)[C@@H](O)C3)cc2)C(=O)O1)C(F)F (stereo in doubt) [Example 14, N-{3-[4-(3,4-Dihydroxy-cyclohexyl)-phenyl]-2-oxo-oxazolidin-5-ylmethyl}-2,2-difluoro-acetamide] | 16 µg/mL (≈ 41.6 µM) | 8 µg/mL (≈ 20.8 µM) | 2 µg/mL (≈ 5.2 µM) | 16 µg/mL (≈ 41.6 µM) |  |  | 
12 | CON=C1CCN(c2ccc(N3CC(CNC(C)=O)OC3=O)cc2F)CC1O (stereo not shown) [Example 4, N-{3-[3-Fluoro-4-(3-hydroxy-4-methoxyimino-piperidin-1-yl)-phenyl]-2-oxo-oxazolidin-5-ylmethyl}-acetamide] | 32 µg/mL (≈ 81.1 µM) | 8 µg/mL (≈ 20.3 µM) | 2 µg/mL (≈ 5.07 µM) | 64 µg/mL (≈ 162 µM) |  |  | 
13 | CCC(=O)NC[C@H]1CN(c2ccc(C3CCC(O)[C@@H](O)C3)c(F)c2)C(=O)O1 (stereo in doubt) [Example 8, N-{3-[4-(3,4-Dihydroxy-cyclohexyl)-3-fluoro-phenyl]-2-oxo-oxazolidin-5-ylmethyl}-propionamide] | 8 µg/mL (≈ 21 µM) | 8 µg/mL (≈ 21 µM) | 2 µg/mL (≈ 5.26 µM) | 8 µg/mL (≈ 21 µM) |  |  | 
